Measured values taken from the supplement of paper PMC13380429.
± gives the standard deviation of the averaged measurements.

How the values were obtained:
Settings in all cases: 72 h
Caco-2 [1] = experiment: drug sensitivity score (DSS) for viability; higher = more toxic; extreme values may be limits of the assay
Calu-3 [2] = experiment: as above
Vero E6 [3] = experiment: as above
HepG2 [4] = experiment: as above
U2OS [5] = experiment: as above
Caco-2 [6] = experiment: cell viability relative to DMSO; higher = less toxic
Calu-3 [7] = experiment: as above
Vero E6 [8] = experiment: as above
HepG2 [9] = experiment: as above
U2OS [10] = experiment: as above
Caco-2 [11] = experiment: relative viability EC50 (midpoint between 100% and the lowest measured viability); higher = less toxic
Calu-3 [12] = experiment: as above
Vero E6 [13] = experiment: as above
HepG2 [14] = experiment: as above
U2OS [15] = experiment: as above

Row | SMILES | drug sensitivity score (Caco-2 [1]) | drug sensitivity score (Calu-3 [2]) | drug sensitivity score (Vero E6 [3]) | drug sensitivity score (HepG2 [4]) | drug sensitivity score (U2OS [5]) | cell viability (Caco-2 [6]; 1 nM) | cell viability (Caco-2 [6]; 10 nM) | cell viability (Caco-2 [6]; 100 nM) | cell viability (Caco-2 [6]; 1000 nM) | cell viability (Caco-2 [6]; 10000 nM) | cell viability (Calu-3 [7]; 1 nM) | cell viability (Calu-3 [7]; 10 nM) | cell viability (Calu-3 [7]; 100 nM) | cell viability (Calu-3 [7]; 1000 nM) | cell viability (Calu-3 [7]; 10000 nM) | cell viability (Vero E6 [8]; 1 nM) | cell viability (Vero E6 [8]; 10 nM) | cell viability (Vero E6 [8]; 100 nM) | cell viability (Vero E6 [8]; 1000 nM) | cell viability (Vero E6 [8]; 10000 nM) | cell viability (HepG2 [9]; 1 nM) | cell viability (HepG2 [9]; 10 nM) | cell viability (HepG2 [9]; 100 nM) | cell viability (HepG2 [9]; 1000 nM) | cell viability (HepG2 [9]; 10000 nM) | cell viability (U2OS [10]; 1 nM) | cell viability (U2OS [10]; 10 nM) | cell viability (U2OS [10]; 100 nM) | cell viability (U2OS [10]; 1000 nM) | cell viability (U2OS [10]; 10000 nM) | relative viability EC50 (Caco-2 [11]) | relative viability EC50 (Calu-3 [12]) | relative viability EC50 (Vero E6 [13]) | relative viability EC50 (HepG2 [14]) | relative viability EC50 (U2OS [15])
1 | CCO/N=C(\C(=O)N[C@@H]1C(=O)N2C(C(=O)[O-])=C(Sc3nc(-c4cc[n+](C)cc4)cs3)CS[C@H]12)c1nsc(NP(=O)(O)O)n1 [ceftaroline-fosamil] | 0 | 0 | 0 | 0 | 0 | 94.2% | 101% | 89.4% | 105% | 93.2% | 116% | 109% | 98.4% | 106% | 98.6% | 106% | 99.6% | 107% | 97.9% | 102% | 116% | 95.2% | 105% | 101% | 104% | 103% | 106% | 99.5% | 107% | 102% | > 10 µM | > 10 µM | > 10 µM | > 10 µM | > 10 µM
2 | C1CCC2(CC1)CCNCC2 [4,4-pentamethylenepiperidine] | 0 | 0 | 0 | 0 | 0 | 99.9% | 93% | 97.4% | 91.2% | 102% | 99.2% | 96.3% | 109% | 95.1% | 101% | 102% | 101% | 100% | 104% | 98.7% | 104% | 90.7% | 96% | 102% | 96.7% | 97.2% | 95.3% | 95.2% | 94.9% | 91.7% | > 10 µM | > 10 µM | > 10 µM | > 10 µM | > 10 µM
3 | CC(=O)Nc1ccc(C(=O)NC(C)(C)C)cc1 [CPI-1189] | 0 | 0 | 0 | 0 | 0 | 99.9% | 99.7% | 104% | 95.7% | 99.9% | 108% | 105% | 108% | 114% | 96.6% | 96% | 99.6% | 97.8% | 97.2% | 91.8% | 91.5% | 95.3% | 96.6% | 97.4% | 94.2% | 100% | 93.3% | 98.2% | 97% | 98.7% | > 10 µM | > 10 µM | > 10 µM | > 10 µM | > 10 µM
4 | CCC(CC)(NC(=O)C(C)C)C(=O)N[C@@H](CCCNC(=N)N)C(=O)NC1(C(=O)NC(c2ccc(F)cc2)c2ccc(F)cc2)CCCC1 [MM-102] | 0 | 0 | 0 | 0 | 0 | 99% | 93.9% | 101% | 94.6% | 102% | 98.1% | 85.4% | 92.5% | 97.8% | 97.8% | 94.2% | 101% | 97.3% | 99.5% | 106% | 100% | 96.8% | 98.4% | 105% | 114% | 97.8% | 94.9% | 101% | 95.8% | 99.2% | > 10 µM | > 10 µM | > 10 µM | > 10 µM | > 10 µM
5 | Nc1nonc1/C(=N/O)Nc1ccc(F)c(Cl)c1 [IDO5L] | 0 | 0 | 0 | 0 | 0 | 101% | 95.2% | 115% | 87.7% | 109% | 92.5% | 96% | 108% | 89.6% | 114% | 106% | 102% | 96.7% | 98.8% | 114% | 92.8% | 97.8% | 104% | 89.9% | 91.2% | 93.1% | 95.7% | 102% | 95.5% | 102% | > 10 µM | > 10 µM | > 10 µM | > 10 µM | > 10 µM
6 | CC(C)(C)c1nc(-c2cccc(NS(=O)(=O)c3c(F)cccc3F)c2F)c(-c2ccnc(N)n2)s1 [dabrafenib] | 0 | 0 | 0 | 9.8 | 0 | 103% | 97.1% | 98.2% | 77.8% | 101% | 88% | 93.8% | 106% | 99.3% | 124% | 96.5% | 104% | 103% | 79.8% | 102% | 96.4% | 90.9% | 78.3% | 65.9% | 30.4% | 102% | 93.2% | 107% | 95.3% | 102% | > 10 µM | > 10 µM | > 10 µM | 0.49 µM | > 10 µM
7 | COc1ccc(CC(C)NCC(O)c2ccc(O)c(NC=O)c2)cc1 (stereo not given) [formoterol] | 0 | 0.5 | 0 | 0 | 0 | 96% | 90.2% | 93.4% | 100% | 98.5% | 99.3% | 101% | 101% | 88.1% | 92.4% | 93.9% | 91.5% | 97.2% | 95.3% | 104% | 101% | 89.4% | 98.5% | 93.7% | 105% | 95.5% | 102% | 97.2% | 105% | 97.8% | > 10 µM | > 10 µM | > 10 µM | > 10 µM | > 10 µM
8 | CO[C@H]1C[C@H](O[C@H]2CC[C@@]3(C)[C@H](CC[C@@H]4[C@@H]3CC[C@]3(C)[C@@H](C5=CC(=O)OC5)[C@@H](OC(C)=O)C[C@]43O)C2)O[C@@H](C)[C@@H]1O [oleandrin] | 28.6 | 24.5 | 32.3 | 24.1 | 28.1 | 98.1% | 79.5% | 17.8% | 19.5% | 20.9% | 102% | 89.3% | 31.6% | 18.4% | 17.4% | 101% | 87.5% | 1.1% | 1.1% | 1.3% | 102% | 107% | 38.1% | 7.4% | 6.4% | 104% | 98.4% | 10.8% | 7.3% | 9.5% | 0.0155 µM | 0.0355 µM | 0.0214 µM | 0.0769 µM | 0.0334 µM
9 | CC#CCOC(=O)c1c(C)nc2sc3c(c2c1N)CCC(O)C3 (stereo not given) | 0 | 0 | 0 | 0 | 0 | 97.3% | 91.4% | 101% | 92.3% | 90.2% | 113% | 93.6% | 102% | 101% | 97.4% | 91.6% | 97% | 88.6% | 93.2% | 98.9% | 100% | 94.8% | 89.9% | 106% | 91.4% | 100% | 94.6% | 103% | 93.8% | 95.9% | > 10 µM | > 10 µM | > 10 µM | > 10 µM | > 10 µM
10 | CC(C)NCC(O)COc1cccc2[nH]ccc12 (stereo not given) [pindolol] | 0 | 0 | 0 | 0 | 0 | 117% | 100% | 122% | 101% | 90.9% | 98.8 ± 1.1% | 97 ± 6.8% | 100.4 ± 0.28% | 103.8 ± 0.92% | 102 ± 15% | 99.2 ± 1.3% | 95.8 ± 1.4% | 96.1 ± 9.6% | 98.8 ± 2.1% | 95 ± 11% | 111 ± 10% | 90 ± 12% | 105 ± 0.14% | 85.5 ± 29% | 103 ± 8.6% | 103 ± 5% | 101 ± 2.3% | 99.5 ± 3.3% | 102.5 ± 0.35% | 103 ± 0.14% | > 10 µM | > 10 µM | > 10 µM | > 10 µM | > 10 µM
11 | CC(C)(O)C(=O)Nc1ccc([N+](=O)[O-])c(C(F)(F)F)c1 [2-hydroxyflutamide] | 0 | 0 | 0 | 0 | 0 | 97.3% | 90.4% | 90% | 96.5% | 87.9% | 100% | 97.2% | 97.8% | 101% | 107% | 100% | 102% | 102% | 93.9% | 97% | 97.6% | 99.3% | 92.6% | 98% | 98.1% | 99% | 105% | 103% | 97.1% | 94.6% | > 10 µM | > 10 µM | > 10 µM | > 10 µM | > 10 µM
12 | N[C@H]1C[C@@H]1c1ccc(-c2cccc(O)c2)cc1 [OG-L002] | 0 | 0 | 0 | 0 | 0 | 104% | 100% | 102% | 101% | 105% | 108% | 106% | 99.3% | 95.3% | 108% | 96% | 103% | 95.9% | 104% | 107% | 103% | 97.6% | 100% | 115% | 114% | 101% | 94.3% | 98.3% | 97.8% | 96.4% | > 10 µM | > 10 µM | > 10 µM | > 10 µM | > 10 µM
13 | Cn1cc(C(=O)OCC2CCN(CCNS(C)(=O)=O)CC2)c2ccccc21 | 0 | 0 | 0 | 0 | 0 | 99% | 95.8% | 85.9% | 93.3% | 96.8% | 86% | 109% | 100% | 103% | 108% | 101% | 96.8% | 100% | 95.1% | 96.5% | 96.1% | 96.3% | 93.9% | 93.3% | 91.3% | 99.7% | 101% | 96.8% | 98.8% | 95.3% | > 10 µM | > 10 µM | > 10 µM | > 10 µM | > 10 µM
14 | CC(C)NC[C@@H](O)COc1ccccc1-n1cccc1 (racemic) [isamoltane] | 0 | 0 | 0 | 0 | 0 | 96.3% | 97.7% | 93.1% | 103% | 107% | 98.2% | 99.2% | 94.9% | 97.1% | 98.3% | 105% | 97.7% | 96.1% | 96.3% | 102% | 97.1% | 100% | 108% | 105% | 104% | 96.8% | 99% | 97.4% | 107% | 102% | > 10 µM | > 10 µM | > 10 µM | > 10 µM | > 10 µM
